# Data published in patent publication US20030219476A1, “Liposomal formulation of mitoxantrone” (priority 2000, published 2003).
# “Also recorded” adds a separate entry of the source. Structures can show the parent of a compound that is named as a salt. Where two headings read alike, the source gives them in different places.
# Legend:
# in vivo [1] = conditions: beagle, dog, plasma, iv, 0.26 mg/kg
# Protocol: (§1) Time points analyzed were 0, 5 and 30 min and 1, 2, 4, 8 and 24 h after a single dose administration.
# in vivo [2] = conditions: male, CD2F1, mouse, plasma, iv, 5 mg/kg
# Protocol: Plasma and tissue samples were analyzed for mitoxantrone by reverse phase HPLC. Plasma samples (0.25 ml) were mixed with 0.5 ml of solution of 0.01 mg/ml hexanesulfonic acid, 0.5 mg/ml ascorbic acid, and 0.25 μg ametantrone as internal standard. After vortexing for 30 sec., 0.5 ml of 0.1 M borate buffer (pH 9.5) and 150 μl of 1 M sodium hydroxide was added and the solution vortexed again for 30 sec. […] The organic layer (9 ml) was separated and evaporated under nitrogen. Samples were reconstituted with 10 μl of mobile phase prior to HPLC analysis. Tissue samples were homogenized in 1 ml of solution containing 20% ascorbic acid in 0.1 M citrate buffer, pH 3.0, and extracted as described above. Mitoxantrone was separated by reverse-phase chromatography (Waters μBondapak® C-18) using a mobile phase of 33% acetonitrile, and 67% 0.16 M ammonium formate buffer, pH 2.7 delivered at a flow rate of 1 ml/min. Mitoxantrone was detected at 600 nm. The limit of sensitivity was 10 ng/ml.
# Plasma Pharmacokinetic parameters were assessed by standard methods. The elimination rate constant (K) was calculated from the linear regression analysis of plasma concentration-time curve. The area under the curve (AUC0→∞) was calculated using the linear trapezoidal method with extrapolation of the terminal phase to infinity (Clast/K), where Clast is the last measured concentration. Other parameters calculated were total body clearance (Cl) as Dose/AUC; volume of distribution (Varea)=Cl/K; elimination half-life (t1/2)=0.693/Karea.
# male CD2F1 mice [3] = test system: male CD2F1 mice
# Protocol: Thirty male CD2F1 mice weighing 20-22 g were acclimated for 1 week and randomly separated into 6 groups of five animals each with 5 animals per cage. On day 0 all groups of animals were injected i.v. in the tail vein with the drug or vehicle control and once daily thereafter for a period of 5 days. The volumes administered were varied based on individual animal weights. Mouse weights were determined for each mouse on alternate days following injection and observation for clinical illness were recorded at least daily.
# L1210 leukemia cells = test: L1210 ascitic leukemia survival, single dose (Example 14); type: in vivo, mice
# Protocol: Murine leukemia cells, L1210 leukemia cells were grown in the peritoneum of CD2F1 mice by three serial propagations (i.p.). Ascites developed within eight days of the last inoculation were used in the following experiments. Cytostatic activities of liposomal and conventional formulations of mitoxantrone against L1210 ascitic leukemia was determined. Animal group weights were determined three times a week and clinically morbid animals were humanely sacrificed. The surviving mice were observed daily for 60 days. Group survival times post i.v. treatment with single or multiple doses of the drug was indicative of the relative anti-tumor potencies of liposomal and conventional mitoxantrone.
# Female CD2F1 mice were divided into eight groups of 10 animals and inoculated i.v. with 10,000 L1210 cells. Drug was administered twenty-four hours later. Conventional mitoxantrone was administered at doses of 5 and 10 mg/kg. […] Surviving animals were sacrificed on day 60 of the experiment. Blank liposomes equivalent to the 35, mg/kg dose and normal saline was also administered as controls.
# male CD2F1 mice [4] = test system: male CD2F1 mice; remark: listed apart in the source
# Protocol: Eighty male CD2F1 mice weighing 20-22 g were acclimated for 1 week and randomly separated into 8 groups of ten animals each with 5 animals per cage. On day 0 all groups of animals were injected i.v. in the tail vein with the drug or vehicle control. The volumes administered were varied based on individual animal weights. Mouse weights were recorded for each mouse on alternate days following injection and observation for clinical illness were recorded at least daily.
# male CD2F1 mice [5] = test system: male CD2F1 mice; remark: listed apart in the source
# Protocol: Seventy male CD2F1 mice weighing 20-22 g were acclimated for 1 week and randomly separated into 7 groups of ten animals each with 5 animals per cage. On day 0 all groups of animals were injected i.v. in the tail vein with the drug or vehicle control. The volumes administered were varied based on individual animal weights. Mouse weights were recorded for each mouse on alternate days following injection and observation for clinical illness were recorded at least daily.
# [6] = test system: human hormone-refractory prostate tumor cells (PC-3)
# Protocol: Male Balb/c, nu/nu, 6-8 week old mice were inoculated with 5×10^6 of human hormone-refractory prostate tumor cells (PC-3). Tumor growth was monitored twice a week until the tumor volumes were in the range of […]. Animals were then divided into groups and were treated by i.v. injection via the tail vein with conventional mitoxantrone at doses of 0.625, 1.25, 2.5, and 5 mg/kg once every other day for four days. Doses of mitoxantrone formulated in liposomes were 2.5, 5, 7.5, and 10 mg/kg. Control animals received either normal saline or blank liposomes. The median survival time was calculated and all surviving animals were sacrificed on Day 34.
# In these experiments tumor volumes were measured once or twice a week by measuring the three major axes.
# [7] = Plasma pharmacokinetics in dogs (Example 17)
# Protocol: as §1
# male CD2F1 mice [8] = conditions: 25 mg/kg single i.v.
# Protocol: Twenty male CD2F1 mice weighing 20-22 g were acclimated for 1 week and randomly separated into 4 groups of five animals each with 5 animals per cage. On day 0 all groups of animals were injected i.v. in the tail vein with the drug or vehicle control. The volumes administered were varied based on individual animal weights. Mouse weights were recorded for each mouse on alternate days following injection and observation for clinical illness were recorded at least daily.
# male CD2F1 mice [9] = test system: male CD2F1 mice; remark: listed apart in the source
# Protocol: Forty male CD2F1 mice weighing 20-22 g were acclimated for 1 week and randomly separated into 8 groups of five animals each with 5 animals per cage. On day 0 all groups of animals were injected i.v. in the tail vein with the drug or vehicle control and once daily thereafter for a period of 5 days. The volumes administered were varied based on individual animal weights. Mouse weights were recorded for each mouse on alternate days following injection and observations of clinical illness were recorded at least daily.
# beagle dogs = test: Repeated-dose i.v. toxicity in beagle dogs (Example 18)
# Protocol: Conventional mitoxantrone was administered to beagle dogs (3/sex/group) at i.v. dosages of 0 (saline), 0.129 or 0.258 mg/kg (2.6 or 5 mg/m^2) on Days 1, 23, 43 and 65. […] Evaluations for compound-related effects were based on clinical observations, body weight, food consumption, ophthalmologic and ECG examination, clinical pathology, plasma drug concentrations, organ weights and gross and microscopic postmortem examinations.
# [10] = conventional 5 mg/kg, liposomal 10 mg/kg, daily x5
smiles,measurement,setting,value
"O=C1c2c(O)ccc(O)c2C(=O)c2c(NCCNCCO)ccc(NCCNCCO)c21 [conventional mitoxantrone, mitoxantrone hydrochloride]",Cmax,in vivo [1]; female,60 ng/mL
same,Cmax,in vivo [1]; male,84 ng/mL
same,clearance,in vivo [1]; male,89 mL/min/kg
same,half-life,in vivo [1]; male,21.6 min
same,AUC,in vivo [2],140 ng·h/mL
same,Cmax,in vivo [2],410 ng/mL
same,Vd,in vivo [2],5.5 L/kg
same,clearance,in vivo [2],600 mL/min/kg
same,half-life,in vivo [2],6.6 min
same,lethality (mice tested),male CD2F1 mice [3]; 5 mg/kg daily x5,100%
same,progressive weight loss,"male CD2F1 mice [3]; 5 mg/kg daily x5, by day 9",about 35%
same,"acute liver injury (ALT, AST, bilirubin)","male CD2F1 mice [3]; by day 8, conventional 5 mg/kg/day vs liposomal 10 mg/kg/day",roughly equivalent acute liver injury
same,AST and ALT in moribund sacrificed animals,male CD2F1 mice [3]; [10],marked elevations in AST and ALT
same,leukopenia in moribund animals,male CD2F1 mice [3]; [10],marked leukopenia
same,mice with bilirubin concentration greater than in control mice,male CD2F1 mice [3]; [10],3 of the 4
same,clinical signs,"male CD2F1 mice [3]; conventional 2.5, 5 mg/kg, liposomal 10 mg/kg, daily x5",ruffled fur and hunching behavior
same,median survival,"L1210 leukemia cells; 5 mg/kg single i.v., 24 h after 10,000 L1210 cells i.v.",12 days
same,animals alive at day 60,L1210 leukemia cells; 10 mg/kg single i.v.,2/10
same,median survival time,L1210 leukemia cells; 10 mg/kg single i.v.,20 days
same,weight loss,"male CD2F1 mice [4]; 10 mg/kg single i.v., by day 10, then gradual recovery",20%
same,morbidity,male CD2F1 mice [4]; 15 mg/kg single i.v. dose,100%
same,weight loss,"male CD2F1 mice [4]; 15 mg/kg single i.v., by day 9/10",about 35%
same,ALT,"male CD2F1 mice [4]; 15 mg/kg single i.v., day 10, hydrochloride",Clinically significant elevations in ALT; also recorded: significant increases in ALT
same,BUN,"male CD2F1 mice [4]; 15 mg/kg single i.v., two mice",modest elevations in BUN
same,histopathology,"male CD2F1 mice [4]; single i.v. dose, spleen and bone marrow",compound effects on hematopoietic and lymphoid tissues of the spleen and bone marrow
same,body weight course (remaining groups),"male CD2F1 mice [4]; single i.v., conventional 5 mg/kg, liposomal 5, 10, 15 mg/kg",gained weight steadily
same,initial weight loss,"male CD2F1 mice [5]; 10 mg/kg single i.v., gradual recovery",13%
same,morbidity,male CD2F1 mice [5]; 25 mg/kg single i.v.,100%
same,ALT activities,"male CD2F1 mice [5]; day 3, one mouse each: conventional 25 mg/kg, liposomal 35 mg/kg",modest increases in ALT activities
same,survival by day 34,[6]; 0.625 and 1.25 mg/kg i.v. once every other day,100%
same,survival by day 34,[6]; 2.5 and 5 mg/kg i.v. once every other day,no animals
same,toxicity in tumor-bearing mice,[6]; in vivo,Severe toxicity
same,"tissue concentration, kidneys",5 mg/kg single i.v.,~40 µg/g
same,"tissue concentration, lungs",5 mg/kg single i.v.,approximately 20 μg/g
same,heart tissue concentration,"5 mg/kg single i.v., 5 and 15 minutes",approximately 10 μg/g
same,heart concentration (peak),"5 mg/kg single i.v., 5 minutes",11 µg/g
same,liver concentration after gradual decrease,"5 mg/kg single i.v., end of time course",~2 µg/g
same,"liver concentration, initial","5 mg/kg single i.v., start of time course",approximately 19 μg/g
same,"heart, lung and kidney concentrations, comparison of formulations","all time points, 5 mg/kg i.v.",higher
same,V,"[7]; 0.26 mg/kg i.v., male dogs, mean",2.8 L/kg
same,time point at which plasma concentrations could not be measured,[7]; high dose (0.26 mg/kg),30 min
same,morbidity,male CD2F1 mice [8],100%
same,animals that died,male CD2F1 mice [9]; 5 and 7.5 mg/kg daily x5,all of the animals
same,progressive weight loss,"male CD2F1 mice [9]; 5 and 7.5 mg/kg daily x5, by day 7",about 25%
same,hepatocellular vacuolar degeneration,"male CD2F1 mice [9]; 5 or 7.5 mg/kg daily x5, several mice",Some hepatocellular vacuolar degeneration
same,leukopenia in moribund-sacrificed mice,"male CD2F1 mice [9]; conventional 5, 7.5 mg/kg, liposomal 7.5 mg/kg, daily x5","marked, clinically significant, compound related leukopenia"
same,clinical signs,"male CD2F1 mice [9]; day 6, conventional 2.5, 5, 7.5 mg/kg, liposomal 7.5 mg/kg, daily x5",ruffled fur and hunching behavior
same,morbidity or mortality,"male CD2F1 mice [9]; liposomal any dose (2.5-7.5 mg/kg), conventional […], daily x5",no morbidity or mortality
same,hematology,"beagle dogs; 0.129 and 0.258 mg/kg, 4 to 10 days following each dose cycle, dose related",leukopenia and thrombocytopenia
same,ECG parameters,beagle dogs; any examination time,no changes in ECG parameters
same,food consumption,beagle dogs; any groups,no changes in food consumption
same,coagulation or clinical chemistry parameters,beagle dogs; any of the dosage groups,No changes
same,anemia,"beagle dogs; conventional: all animals, liposomal: female dogs",Anemia did not occur
same,body weight,"beagle dogs; conventional: males at 0.258 mg/kg, liposomal: all dose groups, Days 1, 23, 43, 65",lost weight
